The data set deals with GENE-TOX genotoxicity assays, various organisms and cells. Kind of data set: GENE-TOX mutagenicity studies. Particulars: for call: Assay Type: In vivo carcinogenicity studies.
The mark [1] stands for this setting: Species/Cell Type: Escherichia coli polA (W3119 vs P3478), Assay Type: Rec-assay, DNA effects (bacterial DNA repair), Assay Code: RE1T, Evaluation Type: Evaluation A (Pre-1980).
Where [2] appears, read: Species/Cell Type: Chinese hamster lung (V79) cells, Assay Type: Forward gene mutation at the HPRT or ouabain locus, Assay Code: V79+, Evaluation Type: Evaluation A (Pre-1980).
Setting [3] is: Species/Cell Type: Mouse prostate cells, Assay Type: Cell transformation, Assay Code: CTM-, Evaluation Type: Evaluation A (Pre-1980).
[4] abbreviates: Species/Cell Type: Human lymphocytes, Assay Type: Sister-chromatid exchange (SCE) in vitro, Assay Code: SCL+D, Dose Response: With dose response, Evaluation Type: Evaluation B (Post-1980).
The mark [5] stands for this setting: Species/Cell Type: Human, Assay Type: Sister-chromatid exchange (SCE) in vitro, Assay Code: SC1+D, Dose Response: With dose response, Evaluation Type: Evaluation B (Post-1980).
Setting [6] is: Species/Cell Type: Nonhuman, Assay Code: CCG+, Evaluation Type: Evaluation A (Pre-1980).
Where [7] appears, read: Species/Cell Type: Salmonella typhimurium (one or more of the five standard strains: TA98, TA100, TA1535, TA1537, and TA1538), Assay Type: Histidine reverse gene mutation, Ames assay, Assay Code: SALT, Evaluation Type: Evaluation A (Pre-1980).
Where [8] appears, read: Species/Cell Type: Salmonella typhimurium (one or more of the five standard strains: TA98, TA100, TA1535, TA1537, and TA1538), Assay Type: Histidine reverse gene mutation, Ames assay, Assay Code: SAL+, Evaluation Type: Evaluation A (Pre-1980).
Where [9] appears, read: Species/Cell Type: Allium cepa, Assay Type: Chromosome aberrations, Assay Code: ALC-, Evaluation Type: Evaluation A (Pre-1980).
Setting [10] is: Species/Cell Type: Saccharomyces cerevisiae, Assay Type: Mitotic recombination or gene conversion, Assay Code: YEC+, Evaluation Type: Evaluation A (Pre-1980).
Where [11] appears, read: Species/Cell Type: Salmonella typhimurium (one or more of the five standard strains: TA98, TA100, TA1535, TA1537, and TA1538), Assay Type: Histidine reverse gene mutation, Ames assay, Assay Code: SAL+*, Activation: With metabolic activation, Evaluation Type: Evaluation A (Pre-1980).

The structures appear in SMILES notation. Calls of active or inactive are those of the source. How the calls were made is not given here.

Among the data in PubChem BioAssay AID1259408 (Genetic Toxicology Data Bank (GENE-TOX), 2018) are mutagenic call and call values, retold here.

With `Nc1ncnc2c1ncn2[C@@H]1O[C@H](CO)C[C@H]1O`, the mutagenic call runs as follows: (Species/Cell Type: Fischer rat embryo (RLV/1706) cells, Assay Type: Cell transformation, viral enhanced, Assay Code: CTR-, Evaluation Type: Evaluation A (Pre-1980)) “inactive; negative”; (Species/Cell Type: Nonhuman, Assay Type: Sister-chromatid exchange (SCE) in vitro, Assay Code: SC2T, Evaluation Type: Evaluation B (Post-1980)) “no conclusion”.
As for `CCC(C)Br` (stereo not drawn), the mutagenic call under setting [1] was “no conclusion”.
On to `Nc1c[nH]c(=O)[nH]c1=O`, for which the mutagenic call (Species/Cell Type: Allium cepa, Assay Type: Chromosome aberrations, Assay Code: ALC+, Evaluation Type: Evaluation A (Pre-1980)) is “active; positive”.
Turning to `Oc1cc2cc3c(ccc4ccccc43)cc2c2ccccc12`, the mutagenic call by setting is: under setting [2], “active; positive”; under setting [3], “inactive; negative”; (Species/Cell Type: Syrian hamster embryo (SHE) cells, Assay Type: Cell transformation, clonal assay, Assay Code: CTCT, Evaluation Type: Evaluation A (Pre-1980)) “no conclusion”.
Take `CC1CCOS1(=O)=O` (stereo not drawn): the mutagenic call (Species/Cell Type: Schizosaccharomyces pombe, Assay Type: Reverse gene mutation, Assay Code: YEZ+, Evaluation Type: Evaluation A (Pre-1980)) was “active; positive”.
As to `CC1=C(O)C(=O)CC1`, the mutagenic call under setting [4] is “active; positive” and the mutagenic call under setting [5] is “active; positive”.
Regarding `CCCOC1=C(N2CC2)C(=O)C(OCCC)=C(N2CC2)C1=O`, the mutagenic call (Species/Cell Type: Drosophila melanogaster, Assay Type: Sex-linked recessive lethal gene mutation, Assay Code: SRL+, Evaluation Type: Evaluation A (Pre-1980)) was “active; positive”; the mutagenic call under setting [4] is “active; positive”; the mutagenic call under setting [5] is “active; positive”.
With `CNC(=O)Oc1cccc2c1OC(C)(C)O2`, under “Species/Cell Type: Aspergillus nidulans, Assay Type: Aneuploidy, chromosome aberrations, Assay Code: ASN-, Evaluation Type: Evaluation A (Pre-1980)”, the mutagenic call is “inactive; negative”.
Turning to `CCCCN(N=O)C(=O)OCC`, the call under setting [6] is “active; positive”. For the same molecule, where the note is “Species/Cell Type: Nonhuman, Assay Type: Sister-chromatid exchange (SCE) in vitro, Assay Code: SC2+, Evaluation Type: Evaluation A (Pre-1980)”, the mutagenic call is “active; positive”.
With `FC(F)C(F)(F)C(F)(F)OC(F)(F)F`, the mutagenic call under setting [7] is recorded as “no conclusion”.
On to `COc1ccc2c3c([nH]c2c1)[C@H](CC(C)(C)O)N1C(=O)[C@@H]2CCCN2C(=O)[C@]1(O)[C@H]3O`, for which, under setting [7], the mutagenic call is given as “no conclusion”.
For the molecule `Cl/C=C\CCl`, the mutagenic call under setting [8] is “active; positive”.
Take `NS(=O)(=O)c1cc(C(=O)O)c(NCc2ccco2)cc1Cl`: the mutagenic call is “no conclusion” (Species/Cell Type: Human, Assay Type: Sister-chromatid exchange (SCE) in vitro, Assay Code: SC1T, Evaluation Type: Evaluation B (Post-1980)); “inactive; negative” (Species/Cell Type: Saccharomyces cerevisiae, Assay Type: Mitotic recombination or gene conversion, Assay Code: YEC-*, Activation: With metabolic activation, Evaluation Type: Evaluation A (Pre-1980)); “no conclusion” under setting [7].
As to `O=[N+]([O-])c1ccc(-c2csc(Cl)n2)o1`, the mutagenic call runs as follows: (Species/Cell Type: Escherichia coli WP2, Assay Type: Tryptophan reverse gene mutation, Assay Code: WP2+, Evaluation Type: Evaluation A (Pre-1980)) “active; positive”; (Species/Cell Type: Escherichia coli WP2 UVRA, Assay Type: Tryptophan reverse gene mutation, Assay Code: WPU+, Evaluation Type: Evaluation A (Pre-1980)) “active; positive”.
On to `Cc1cc(O)c(C(C)C)cc1O`, for which the mutagenic call under setting [9] is “inactive; negative”.
Consider `COc1ccccc1N1CCN(c2ccc([N+](=O)[O-])c3no[n+]([O-])c23)CC1`, for which the mutagenic call under setting [8] is “active; positive”.
For `CCOC(=O)N(CCOC(C)=O)N=O`, the mutagenic call under setting [8] was “active; positive”.
In the case of `Cc1ccc(NC(=O)N(CCCl)N=O)cc1NC(=O)N(CCCl)N=O`, under setting [10], the mutagenic call is “active; positive”.
Consider `CN(C)C(c1ccccc1)(c1ccccc1)N(C)C`, for which the mutagenic call (Species/Cell Type: Salmonella typhimurium (one or more of the five standard strains: TA98, TA100, TA1535, TA1537, and TA1538), Assay Type: Histidine reverse gene mutation, Ames assay, Assay Code: SAL-, Evaluation Type: Evaluation A (Pre-1980)) is “inactive; negative”.
For the molecule `C[C@@H]1[C@H](O)[C@@H](C)/C=C/C=C/CC/C=C/C=C/C=C/C=C/C(O[C@H]2O[C@H](C)[C@@H](O)[C@H](N)[C@@H]2O)CC2O[C@](O)(CC(O)C(O)CCC(O)CC(O)CC(O)CC(=O)O[C@H]1C)CC(O)C2C(=O)O` (stereo partly drawn), the mutagenic call (Species/Cell Type: Neurospora crassa, Assay Type: Aneuploidy, chromosome aberrations, Assay Code: NEN-, Evaluation Type: Evaluation A (Pre-1980)) is “inactive; negative”.
For the molecule `COc1ccc2c3ccc(OC)cc3c3c4cc(OC)ccc4c4ccc(OC)cc4c3c2c1`, the mutagenic call under setting [11] is “active; positive”.
With `CC(=O)c1ccc([N+](=O)[O-])s1`, the mutagenic call under setting [8] is “active; positive”.
Regarding `O=NN(CCO)CCO`, where the note is “Species/Cell Type: Mammalian polychromatic erythrocytes, Assay Type: Micronucleus test, chromosome aberrations, Assay Code: MNTT, Evaluation Type: Evaluation B (Post-1980)”, the mutagenic call is recorded as “no conclusion”. Further, the call under setting [6] is “active; positive”.
For the molecule `Cc1cc(O)cc(O)c1`, the mutagenic call under setting [9] is “inactive; negative”.
For the molecule `O=C(/C=C/c1ccc([N+](=O)[O-])o1)NC1CCCCC1`, the mutagenic call (Species/Cell Type: Neurospora crassa, Assay Type: Forward gene mutation, Assay Code: NEF-, Evaluation Type: Evaluation A (Pre-1980)) was “inactive; negative”.
Consider `CNC=O`, for which the mutagenic call (Species/Cell Type: Escherichia coli WP2, Assay Type: Tryptophan reverse gene mutation, Assay Code: WP2-, Evaluation Type: Evaluation A (Pre-1980)) is “inactive; negative”.
Consider `COC(=O)COc1ccc(Cl)cc1CCl` (tested in a mixture with another compound), for which the mutagenic call (Species/Cell Type: Saccharomyces cerevisiae, Assay Type: Reverse gene mutation, Assay Code: YERT, Evaluation Type: Evaluation A (Pre-1980)) is reported as “no conclusion”.
In the case of `Cc1cc(N=Nc2c(O)ccc3ccccc23)c(S(=O)(=O)O)cc1Cl`, the mutagenic call under setting [7] is given as “no conclusion”.
As for `CN(N=O)C(C)(C)C`, under “Species/Cell Type: Chinese hamster lung (V79) cells, Assay Type: Forward gene mutation at the HPRT or ouabain locus, Assay Code: V79-, Evaluation Type: Evaluation A (Pre-1980)”, the mutagenic call is “inactive; negative”.
On to `CN(C)N=Nc1cccc(O)c1`, for which the mutagenic call was “no conclusion” (Species/Cell Type: Drosophila melanogaster, Assay Type: Sex-linked recessive lethal gene mutation, Assay Code: SRLT, Evaluation Type: Evaluation A (Pre-1980)) and “active; positive” under setting [10].
In the case of `Cc1c2c(c(C)c3c1ccc1ccccc13)[C@H](O)[C@@H](O)C=C2`, for the setting “Species/Cell Type: Nonhuman, Assay Code: CCGT, Evaluation Type: Evaluation A (Pre-1980)”, the call was “no conclusion”.
Turning to `c1ccc2[nH]c(-c3cscn3)nc2c1`, the mutagenic call runs as follows: (Species/Cell Type: Aspergillus nidulans, Assay Type: Aneuploidy, chromosome aberrations, Assay Code: ASN+, Evaluation Type: Evaluation A (Pre-1980)) “active; positive”; (Species/Cell Type: Aspergillus nidulans, Assay Type: Mitotic recombination, Assay Code: ASGT, Evaluation Type: Evaluation A (Pre-1980)) “no conclusion”; (Species/Cell Type: Mammalian polychromatic erythrocytes, Assay Type: Micronucleus test, chromosome aberrations, Assay Code: MNT+, Evaluation Type: Evaluation B (Post-1980)) “active; positive”.
Regarding `c1ccc2c(c1)ccc1c3ccccc3ccc21`, the mutagenic call is, setting by setting: (Species/Cell Type: Escherichia coli polA (W3110 vs P3478), Assay Type: Rec-assay, DNA effects (bacterial DNA repair), Assay Code: RE2-, Evaluation Type: Evaluation A (Pre-1980)) “inactive; negative”; under setting [1], “no conclusion”; (Species/Cell Type: Mammalian germ cells, Sex: Male, Assay Type: Chromosome aberrations in vivo, Assay Code: CY9-, Evaluation Type: Evaluation A (Pre-1980)) “inactive; negative”; under setting [3], “inactive; negative”; (Species/Cell Type: Nonhuman, Assay Type: Sister-chromatid exchange (SCE) in vivo, Assay Code: SC3+, Evaluation Type: Evaluation B (Post-1980)) “active; positive”; (Species/Cell Type: Nonhuman, Assay Type: Sister-chromatid exchange (SCE) in vivo, Assay Code: SC3T, Evaluation Type: Evaluation A (Pre-1980)) “no conclusion”. The mutagenic call is, setting by setting: (Species/Cell Type: Saccharomyces cerevisiae, Assay Type: Mitotic recombination or gene conversion, Assay Code: YEH-, Evaluation Type: Evaluation A (Pre-1980)) “inactive; negative”; under setting [11], “active; positive”; (Species/Cell Type: Salmonella typhimurium, Assay Type: Forward and reverse gene mutation, host-mediated assay, Assay Code: HMA-, Evaluation Type: Evaluation A (Pre-1980)) “inactive; negative”; (Species/Cell Type: Syrian hamster embryo (SHE) cells, Assay Type: Cell transformation, clonal assay, Assay Code: CTC+, Evaluation Type: Evaluation A (Pre-1980)) “active; positive”. Further, under “Species/Cell Type: Nonhuman, Assay Code: CCG+L, Evaluation Type: Evaluation A (Pre-1980)”, the call was “active; positive”.
In the case of `OC1C2OC2=C2C=c3ccc4cccc5ccc(c3c54)C2C1O` (stereo not drawn), under setting [2], the mutagenic call is “active; positive”.
